Data set [1] deals with Human B Lymphocyte cell line, SU-DHL-8. The data set is described as follows: Relative cell viability, CCK-8, SU-DHL-8. The class given is cell-based. To be noted: 48 hours. A digest of the protocol:
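Cells grown in RPMI-1640 with 10% FBS, treated with compound at several concentrations, then given CCK-8 for 4 h at 37° C. Viability expressed as percent of DMSO-treated cells.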

Data set [2] concerns HCT-116 colon cancer cell lines. The experiment in a line: Invasion Assay using Matrigel, HCT-116. The data set is classed as cell-based, human. The following applies: HCT-116, Matrigel invasion, 24 hours treatment. On the procedure: To evaluate the metastasis inhibitory efficacy of the compounds of the present invention on HCT-116 colon cancer cell lines, an Invasion Assay using Matrigel was performed to assess the cells' invasion ability.
First, Matrigel was thawed on ice in RPMI-1640 medium without FBS, then diluted with DMEM at a ratio of 1:20.
The diluted Matrigel mixture was applied to the upper chamber at 100 μl per well, and 750 μl of RPMI-1640 without FBS was added to the lower chamber.
The plates were then incubated at 37° C. for 1 hour to allow the Matrigel to solidify.
After coating, the Matrigel mixture in the upper chamber was removed using a pipette, and the chamber was washed with RPMI without FBS.
Human-derived colorectal cancer cell line HCT-116, obtained from the Korean Cell Bank, was cultured in RPMI-1640 medium containing 10% FBS.
Following stabilization, the cells were harvested using Trypsin-EDTA treatment, centrifuged at 1,200 rpm for 3 minutes, the supernatant was removed, and the cells were resuspended in the same medium, the medium in the lower chamber was replaced with 750 μl of RPMI-1640 supplemented with 10% FBS, and the cells were seeded into the upper chamber at a density of 5×10^4 cells/well.
The cells were cultured for 24 hours after attachment, and then the compounds according to the present invention (G078, G085, G086, G088, G089, PBK-2024-010, PBK-2025-010, PBK-2025-013, PBK-2025-016) and the control substance DMSO were diluted and added to the upper chamber after removing the medium.
Additionally, the medium in the lower chamber was replaced with fresh RPMI-1640 containing FBS, and the culture was continued.
After an additional 24 hours, the medium was removed, and 1 ml of methanol was added for 10 minutes to fix the cells.
Subsequently, 1 ml of Hematoxylin was added and reacted for 5 minutes, followed by 1 ml of Eosin, which was reacted for 30 seconds. The sample was then washed with distilled water (DW).
After staining was complete, any remaining cells in the upper chamber were removed. Finally, the infiltrated cells were observed under a microscope, photographed, and the degree of infiltration was analyzed.

The subject of data set [3] is T cells isolated from mouse spleen. The experiment in a line: T cell proliferation inhibition, CFSE flow cytometry, CD3/CD28 activation. The class given is cell-based. The following applies: CD3/CD28 activated, 3 days. A digest of the protocol:
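Splenic T cells from 7-week-old C57BL/6 mice were MACS-isolated, CFSE-labelled, seeded at 2×10^5 cells/well and activated with anti-CD3/anti-CD28 (0.5 μg/mL each). Compound at 10 nM–50 μM (six levels, triplicate) was present for 3 days at 37 °C before flow cytometric readout of proliferation inhibition rate.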

Structures are written as SMILES.

As to `CC1(C)CN(CCCCCCCCCCCCC(=O)Nc2nc(N)c3[nH]cnc3n2)CCO1` [Compound 11, 12-[4-(2,2-dimethylmorpholin-4-yl)]dodecyl-N-(6-aminopurine-2-yl)carboxamide], the “Relative cell viability (%)” value turned out to be 7.63% in data set [1] (SU-DHL-8, 1 μM); 6.09% in data set [1] (SU-DHL-8, 10 μM); 4.82% in data set [1] (SU-DHL-8, 30 μM); 3.29% in data set [1] (SU-DHL-8, 50 μM). Besides, the “number of infiltrated cells” value in data set [2] is on record as “reduction in the number of infiltrated cells”. Further, the “Proliferation inhibition rate (%)” value in data set [3] (compound 100 nM), in data set [3] (compound 1 μM), in data set [3] (compound 10 μM), in data set [3] (compound 30 μM) and in data set [3] (compound 50 μM) was 100.00% in each case.

Source of the values: patent US20260184700A1, “PDK1 REGULATORY COMPOUND AND COMPOSITION CONTAINING THE SAME” (PROVIBIO CO., LTD., priority 2024, published 2026).
